The structures appear in SMILES notation. pIC50: −log10 of the molar value. Where a name gives a salt, the structure may show the parent alone.

cloned human NR1/NR2B ion channels, sequence (Q13224 27-1484, other chains not shown): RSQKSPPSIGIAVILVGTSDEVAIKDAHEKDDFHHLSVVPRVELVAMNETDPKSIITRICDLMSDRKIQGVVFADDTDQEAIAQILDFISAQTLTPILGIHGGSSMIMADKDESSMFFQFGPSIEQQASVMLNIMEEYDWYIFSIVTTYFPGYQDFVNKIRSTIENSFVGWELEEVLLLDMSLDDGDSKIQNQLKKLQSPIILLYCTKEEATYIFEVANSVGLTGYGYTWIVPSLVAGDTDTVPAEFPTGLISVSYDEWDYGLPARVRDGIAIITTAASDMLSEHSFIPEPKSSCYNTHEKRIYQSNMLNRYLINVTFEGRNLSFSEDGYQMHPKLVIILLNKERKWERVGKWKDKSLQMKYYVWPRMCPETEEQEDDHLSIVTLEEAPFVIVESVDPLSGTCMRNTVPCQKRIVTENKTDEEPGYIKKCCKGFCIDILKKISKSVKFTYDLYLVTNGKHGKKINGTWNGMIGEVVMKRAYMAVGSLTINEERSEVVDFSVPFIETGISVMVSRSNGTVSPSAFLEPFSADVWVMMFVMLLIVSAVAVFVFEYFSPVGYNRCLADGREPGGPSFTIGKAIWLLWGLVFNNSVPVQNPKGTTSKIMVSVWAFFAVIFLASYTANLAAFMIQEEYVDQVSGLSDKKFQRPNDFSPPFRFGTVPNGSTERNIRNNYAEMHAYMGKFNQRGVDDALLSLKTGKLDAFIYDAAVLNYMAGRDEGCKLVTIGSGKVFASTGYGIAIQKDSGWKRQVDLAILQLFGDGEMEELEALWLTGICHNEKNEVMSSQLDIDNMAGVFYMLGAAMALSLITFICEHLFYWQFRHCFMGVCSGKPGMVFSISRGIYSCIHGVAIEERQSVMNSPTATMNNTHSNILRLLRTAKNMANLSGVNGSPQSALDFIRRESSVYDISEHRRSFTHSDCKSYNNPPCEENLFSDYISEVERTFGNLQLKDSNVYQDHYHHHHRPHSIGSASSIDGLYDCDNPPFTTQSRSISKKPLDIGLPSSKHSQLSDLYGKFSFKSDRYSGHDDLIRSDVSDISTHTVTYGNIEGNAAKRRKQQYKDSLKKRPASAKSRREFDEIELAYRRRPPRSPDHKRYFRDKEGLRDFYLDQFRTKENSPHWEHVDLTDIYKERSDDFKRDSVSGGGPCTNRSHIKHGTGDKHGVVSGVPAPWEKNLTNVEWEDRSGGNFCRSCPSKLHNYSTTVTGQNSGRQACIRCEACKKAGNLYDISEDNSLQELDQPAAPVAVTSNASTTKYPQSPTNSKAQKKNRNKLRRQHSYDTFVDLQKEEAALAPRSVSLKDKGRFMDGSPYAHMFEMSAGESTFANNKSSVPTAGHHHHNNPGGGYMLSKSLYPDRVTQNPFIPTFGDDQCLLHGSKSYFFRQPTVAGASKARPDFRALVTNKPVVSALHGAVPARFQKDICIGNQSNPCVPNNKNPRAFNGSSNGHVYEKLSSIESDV

This assay has as its target cloned human NR1/NR2B ion channels (Homo sapiens (Human), UniProt Q05586+Q13224). The assay can be described thus: HNR2BC: effects of test articles on cloned human NR1/NR2B ion channels expressed in mammalian cells (FLIPR calcium flux). In kind it is cell-based. To be noted: cloned human NR1/NR2B, Table 5. The procedure, abridged:
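Compounds were added to dye-loaded cells for 5 min with fluorescence monitored for agonism, followed by co-agonists (glutamate ~EC80, glycine 10 μM saturating) for 5 min. Cells stably expressed inducible human NR1/NR2B, and the buffer was pH 7.4. The FLIPR Ca2+ flux signal was normalized against control wells.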
Consider `Cc1cccc(-c2cnc3ccn(CC(=O)N4CC(F)(F)C4)c3c2)c1` [Example 269, 1-(3,3-Difluoroazetidin-1-yl)-2-[6-(m-tolyl)pyrrolo[3,2-b]pyridin-1-yl]ethanone], for which the pIC50 was 7.20. On to `O=C(Cn1ccc2ncc(-c3ccccc3)cc21)N1CC(F)C1` [Example 270, 1-(3-Fluoroazetidin-1-yl)-2-(6-phenylpyrrolo[3,2-b]pyridin-1-yl)ethanone], for which the pIC50 is 7.40. The value for `Cc1c(F)ccc(-c2cnc3c(F)cn(CC(=O)N4CC(F)(F)C4)c3c2)c1F` [Example 271, 1-(3,3-Difluoroazetidin-1-yl)-2-[6-(2,4-difluoro-3-methyl-phenyl)-3-fluoro-pyrrolo[3,2-b]pyridin-1-yl]ethanone] was 7.10; that for `Cc1cc(-c2cnc3ccn(CC(=O)N4CC(O)C4)c3c2)ccc1F` [Example 273, 2-[6-(4-Fluoro-3-methyl-phenyl)pyrrolo[3,2-b]pyridin-1-yl]-1-(3-hydroxyazetidine-1-yl)ethanone] was 6.00; that for `CO/N=C(/Cn1ccc2ncc(-c3ccc(F)c(C)c3)cc21)C1CC1` [Example 276, 1-Cyclopropyl-2-[6-(4-fluoro-3-methyl-phenyl)pyrrolo[3,2-b]pyridin-1-yl]-N-methoxy-ethanimine] was 6.30.

Turning to `O=C(Cn1ccc2ncc(-c3cccs3)cc21)N1CC(F)C1` [Example 277, 1-(3-Fluoroazetidin-1-yl)-2-[6-(2-thienyl)pyrrolo[3,2-b]pyridin-1-yl]ethanone], the pIC50 is 5.50.

Consider `O=C(Cn1ccc2ncc(-c3cccs3)cc21)N1CCCC1` [Example 278, 1-Pyrrolidin-1-yl-2-[6-(2-thienyl)pyrrolo[3,2-b]pyridin-1-yl]ethanone], for which the pIC50 was 6.60. The value for `Cc1ccc(-c2cnc3ccn(CC(=O)N4CC(F)(F)C4)c3c2)s1` [Example 279, 1-(3,3-Difluoroazetidin-1-yl)-2-[6-(5-methyl-2-thienyl)pyrrolo[3,2-b]pyridin-1-yl]ethanone] was 6.60; that for `Cc1ccc(-c2cnc3ccn(CC(=O)N4CC(F)C4)c3c2)s1` [Example 280, 1-(3-Fluoroazetidin-1-yl)-2-[6-(5-methyl-2-thienyl)pyrrolo[3,2-b]pyridin-1-yl]ethanone] was 7.50; that for `CCc1ccc(-c2cnc3ccn(CC(=O)N4CC(F)C4)c3c2)s1` [Example 281, 2-[6-(5-Ethyl-2-thienyl)pyrrolo[3,2-b]pyridin-1-yl]-1-(3-fluoroazetidin-1-yl)ethanone] was 7.70. The same measure for `CCc1ccc(-c2cnc3ccn(CC(=O)N4CCCC4)c3c2)s1` [Example 282, 2-[6-(5-Ethyl-2-thienyl)pyrrolo[3,2-b]pyridin-1-yl]-1-pyrrolidin-1-yl-ethanone]: 7.10; for `Cc1ccc(-c2cnc3ccn(CC(=O)N4CCCC4)c3c2)s1` [Example 283, 2-[6-(5-Methyl-2-thienyl)pyrrolo[3,2-b]pyridin-1-yl]-1-pyrrolidin-1-yl-ethanone]: 6.70.

Regarding `CCc1ccc(-c2cnc3ccn(CC(=O)N4CC(F)(F)C4)c3c2)s1` [Example 284, 1-(3,3-Difluoroazetidin-1-yl)-2-[6-(5-ethyl-2-thienyl)pyrrolo[3,2-b]pyridin-1-yl]ethanone], the pIC50 was 7.00. Consider `O=C(Cn1ccc2ncc(-c3cc(Cl)cs3)cc21)N1CC(F)C1` [Example 285, 2-[6-(4-Chloro-2-thienyl)pyrrolo[3,2-b]pyridin-1-yl]-1-(3-fluoroazetidin-1-yl)ethanone], for which the pIC50 is 6.80. The same measure for `Cc1cc(-c2cnc3ccn(C/C(=N/O)C4CC4)c3c2)ccc1F` [Example 286, 1-Cyclopropyl-2-[6-(4-fluoro-3-methyl-phenyl)pyrrolo[3,2-b]pyridin-1-yl]ethanone oxime trifluoroacetate salt]: 6.80; for `O=C(Cn1ccc2ncc(-c3ccc(Cl)s3)cc21)N1CCCC1` [Example 287, 2-[6-(5-Chloro-2-thienyl)pyrrolo[3,2-b]pyridin-1-yl]-1-pyrrolidin-1-yl-ethanone]: 6.20. On to `O=C(Cn1ccc2ncc(-c3cc(Cl)cs3)cc21)N1CCCC1` [Example 288, 2-[6-(4-Chloro-2-thienyl)pyrrolo[3,2-b]pyridin-1-yl]-1-pyrrolidin-1-yl-ethanone], for which the pIC50 is 7.70.

For the compound `COC1CN(C(=O)Cn2ccc3ncc(-c4ccc(F)c(C)c4)cc32)C1` [Example 290, 2-[6-(4-Fluoro-3-methyl-phenyl)pyrrolo[3,2-b]pyridin-1-yl]-1-(3-methoxyazetidin-1-yl)ethanone], the pIC50 is 6.20. The same measure for `COCCn1ccc2ncc(-c3ccc(F)c(C)c3)cc21` [Example 291, 6-(4-Fluoro-3-methyl-phenyl)-1-(2-methoxyethyl)pyrrolo[3,2-b]pyridine trifluoroacetate salt]: 7.10; for `O=C(Cn1ccc2ncc(-c3cccc(F)c3)cc21)C1CCC1` [Example 292, 1-Cyclobutyl-2-[6-(3-fluorophenyl)pyrrolo[3,2-b]pyridin-1-yl]ethanone]: 5.90; for `O=C(Cn1ccc2ncc(-c3ccc(F)cc3)cc21)N1CC[C@H](F)C1` [Example 294, 2-[6-(4-Fluorophenyl)pyrrolo[3,2-b]pyridin-1-yl]-1-[(3S)-3-fluoropyrrolidin-1-yl]ethanone trifluoroacetate salt]: 6.50. The value for `CCC(=O)Cn1ccc2ncc(-c3ccc(F)c(C)c3)cc21` [Example 295, 1-[6-(4-Fluoro-3-methyl-phenyl)pyrrolo[3,2-b]pyridin-1-yl]butan-2-one trifluoroacetate salt] was 6.50; that for `CCN(C)C(=O)Cn1ccc2ncc(-c3ccc(F)c(C)c3)cc21` [Example 296, N-Ethyl-2-[6-(4-fluoro-3-methyl-phenyl)pyrrolo[3,2-b]pyridin-1-yl]-N-methyl-acetamide] was 7.60; that for `CCN(CC)C(=O)Cn1ccc2ncc(-c3ccc(F)c(C)c3)cc21` [Example 297, N,N-Diethyl-2-[6-(4-fluoro-3-methyl-phenyl)pyrrolo[3,2-b]pyridin-1-yl]acetamide] was 7.40. The same measure for `O=C(Cn1cc(Cl)c2ncc(-c3cccc(C(F)(F)F)c3)cc21)N1CCC1` [Example 298, 1-(Azetidin-1-yl)-2-[3-chloro-6-[3-(trifluoromethyl)phenyl]pyrrolo[3,2-b]pyridin-1-yl]ethanone]: 6.30; for `Cc1cccc(-c2cnc3c(Cl)cn(CC(=O)C4CC4)c3c2)c1` [Example 299, 2-[3-Chloro-6-(m-tolyl)pyrrolo[3,2-b]pyridin-1-yl]-1-cyclopropyl-ethanone]: 7.30. Regarding `O=C(Cn1cc(Cl)c2ncc(-c3ccccc3)cc21)C1CC1` [Example 300, 2-(3-Chloro-6-phenyl-pyrrolo[3,2-b]pyridin-1-yl)-1-cyclopropyl-ethanone], the pIC50 was 7.70.

As for `O=C(Cn1cc(Cl)c2ncc(-c3cc(F)c(F)c(F)c3)cc21)N1CCC1` [Example 301, 1-(Azetidin-1-yl)-2-[3-chloro-6-(3,4,5-trifluorophenyl)pyrrolo[3,2-b]pyridin-1-yl]ethanone], the pIC50 is 7.70. The same measure for `O=C(Cn1cc(F)c2ncc(-c3ccc(F)cc3)cc21)N1CCC1` [Example 302, 1-(Azetidin-1-yl)-2-[3-fluoro-6-(4-fluorophenyl)pyrrolo[3,2-b]pyridin-1-yl]ethanone]: 7.50; for `Cc1cc(C)cc(-c2cnc3c(Cl)cn(CC(=O)N4CCC4)c3c2)c1` [Example 303, 1-(Azetidin-1-yl)-2-[3-chloro-6-(3,5-dimethylphenyl)pyrrolo[3,2-b]pyridin-1-yl]ethanone]: 7.40; for `Cc1cc(-c2cnc3c(F)cn(CC(=O)N4CCOCC4)c3c2)ccc1F` [Example 304, 2-[3-Fluoro-6-(4-fluoro-3-methyl-phenyl)pyrrolo[3,2-b]pyridin-1-yl]-1-morpholino-ethanone]: 6.80.

Take `O=C(Cn1cc(F)c2ncc(-c3ccc(F)cc3)cc21)N1CCOCC1` [Example 305, 2-[3-Fluoro-6-(4-fluorophenyl)pyrrolo[3,2-b]pyridin-1-yl]-1-morpholino-ethanone]: the pIC50 was 7.10. The value for `O=C(Cn1cc(F)c2ncc(-c3cc(F)c(F)c(F)c3)cc21)N1CC(F)C1` [Example 306, 1-(3-Fluoroazetidin-1-yl)-2-[3-fluoro-6-(3,4,5-trifluorophenyl)pyrrolo[3,2-b]pyridin-1-yl]ethanone] was 6.40; that for `Cc1cc(-c2cnc3c(F)cn(CC(=O)N4CC(F)C4)c3c2)ccc1F` [Example 307, 1-(3-Fluoroazetidin-1-yl)-2-[3-fluoro-6-(4-fluoro-3-methyl-phenyl)pyrrolo[3,2-b]pyridin-1-yl]ethanone] was 7.40; that for `O=C(Cn1cc(F)c2ncc(-c3ccc(F)cc3)cc21)N1CC(F)C1` [Example 308, 1-(3-Fluoroazetidin-1-yl)-2-[3-fluoro-6-(4-fluorophenyl)pyrrolo[3,2-b]pyridin-1-yl]ethanone] was 7.20.

`Cc1csc(-c2cnc3c(F)cn(CC(=O)N4CC(F)C4)c3c2)c1` [Example 309, 1-(3-Fluoroazetidin-1-yl)-2-[3-fluoro-6-(4-methyl-2-thienyl)pyrrolo[3,2-b]pyridin-1-yl]ethanone]: the pIC50 was 6.70. For the compound `O=C(Cn1cc(F)c2ncc(-c3cccc(C(F)F)c3)cc21)N1CC(F)C1` [Example 310, 2-[6-[3-(Difluoromethyl)phenyl]-3-fluoro-pyrrolo[3,2-b]pyridin-1-yl]-1-(3-fluoroazetidin-1-yl)ethanone], the negative logarithm of the IC50 (pIC50) was 7.30. Consider `O=C(Cn1cc(F)c2ncc(-c3ccc(F)c(F)c3)cc21)N1CC(F)C1` [Example 311, 2-[6-(3,4-Difluorophenyl)-3-fluoro-pyrrolo[3,2-b]pyridin-1-yl]-1-(3-fluoroazetidin-1-yl)ethanone], for which the pIC50 was 7.20.

Broadly, the pIC50 is −log10 of the IC50, conventionally taken in molar units.

Source of the values: patent US10377753B2, “Substituted 4-azaindoles and their use as GluN2B receptor modulators” (Janssen Pharmaceutica NV, priority 2015, dated 2019).
